The supplement of paper PMC10307832

Legend:
Experiment in all cases: relative viability (nuclei count vs DMSO), 5 days (fraction); higher = more cells survive
[1] = compound: C1CC2=C(C1)C=C(C=C2)OC3=NC(=C4C(=N3)N(C=N4)CC5=CC=C(C=C5)C6=CC=CC=C6)N[C@@H](CC7=CC=CC=C7)CO [QS11] + NC(=O)Nc1cc(-c2cccc(F)c2)sc1C(=O)N[C@H]1CCCNC1 [AZD7762] (partner 0.2 µM)
Procedure, shortened: (§1)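 Relative viability divides the nuclei count in treated wells by that in vehicle wells. Lung cancer cell lines were seeded in 1536-well plates, dosed by pin tool the next day, and fixed and stained after 5 days in one step with final 0.05% Triton X-100, 1% formaldehyde and 1 ug/ml Hoechst. Dosing was a single drug or a fixed anchor-drug dose plus five library-drug doses (not always all listed) in √10 steps, and values are medians of duplicate plates imaged at 4×.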

[2] = compound: C1CC2=C(C1)C=C(C=C2)OC3=NC(=C4C(=N3)N(C=N4)CC5=CC=C(C=C5)C6=CC=CC=C6)N[C@@H](CC7=CC=CC=C7)CO [QS11] + O=C(CCCCCCC(=O)Nc1ccccc1)NO [Vorinostat] (partner 1 µM)
Procedure, shortened: as §1

[3] = compound: C1CC2=C(C1)C=C(C=C2)OC3=NC(=C4C(=N3)N(C=N4)CC5=CC=C(C=C5)C6=CC=CC=C6)N[C@@H](CC7=CC=CC=C7)CO [QS11] + O=C(c1cc(Cc2n[nH]c(=O)c3ccccc23)ccc1F)N1CCN(C(=O)C2CC2)CC1 [Olaparib] (partner 8 µM)
Procedure, shortened: as §1

[4] = compound: CC1=C(C=C(C=C1)NC(=O)C2=CC(=CC=C2)C(C)(C)C#N)NC3=CC4=C(C=C3)N=CN(C4=O)C [AZ628] + O=C(CCCCCCC(=O)Nc1ccccc1)NO [Vorinostat] (partner 1 µM)
Procedure, shortened: as §1

Cell Line	relative viability ([1]; first compound 0.08 µM)	relative viability ([1]; first compound 0.253 µM)	relative viability ([1]; first compound 0.8 µM)	relative viability ([1]; first compound 2.53 µM)	relative viability ([1]; first compound 8 µM)	relative viability ([2]; first compound 0.08 µM)	relative viability ([2]; first compound 0.253 µM)	relative viability ([2]; first compound 0.8 µM)	relative viability ([2]; first compound 2.53 µM)	relative viability ([2]; first compound 8 µM)	relative viability ([3]; first compound 0.08 µM)	relative viability ([3]; first compound 0.253 µM)	relative viability ([3]; first compound 0.8 µM)	relative viability ([3]; first compound 2.53 µM)	relative viability ([3]; first compound 8 µM)	relative viability ([4]; first compound 0.08 µM)	relative viability ([4]; first compound 0.253 µM)	relative viability ([4]; first compound 0.8 µM)	relative viability ([4]; first compound 2.53 µM)	relative viability ([4]; first compound 8 µM)
LK-2	0.388	0.643	0.527	0.412	0.455	0.282	0.27	0.467	0.323	0.28	0.569	0.764	1.03	0.734	0.856	0.272	0.244	0.396	0.275	0.222
NCI-H2342	0.489	0.47	0.502	0.488	0.456	0.759	0.733	0.947	0.669	0.746	0.352	0.395	0.494	0.479	0.441	0.928	0.692	0.81	0.753	0.825
NCI-H1734	0.579	0.595	0.71	0.465	0.529	0.79	0.82	0.779	0.792	0.672	0.625	0.649	0.608	0.587	0.507	0.923	0.773	0.761	0.772	0.463
NCI-H23	0.229	0.252	0.278	0.208	0.216	0.542	0.6	0.564	0.544	0.491	0.297	0.226	0.245	0.269	0.264	0.709	0.555	0.524	0.404	0.333
NCI-H647	0.441	0.302	0.592	0.385	0.565	0.623	0.801	0.62	0.387	0.356	0.676	0.523	0.541	0.604	0.664	0.54	0.845	0.524	0.833	0.488
NCI-H1915	0.693	0.702		0.753	0.634	0.522	0.528		0.467	0.391	0.227	0.25		0.259	0.275	0.549	0.606	0.537	0.461	0.462
201T	0.669	0.748	0.591	0.619	0.617	0.937	0.995	0.797	0.866	0.668	0.876	1.05	0.699	0.898	0.718	1.06	1.02	1.08	1.04	1.08
NCI-H3122	0.998	1.05		1.15	0.961	1	1.21		1.03	0.584	0.636	0.694		0.601	0.637	0.932	0.921	0.737	0.768	0.496
NCI-H2170	0.87	0.942	0.722	0.871	1.02	0.819	0.85	0.664	0.796	1.07	0.549	0.632	0.539	0.596	0.722	0.804	0.833	0.786	0.837	0.905
HCC-78	0.677	0.527	0.552	0.703	0.703	0.4	0.48	0.518	0.46	0.444	0.665	1.02	0.83	0.859	0.806	0.523	0.439	0.465	0.565	0.457
HARA	0.63		0.267	0.454	0.329	0.498	0.565		0.506	0.431	0.729		0.473	0.919	0.803	0.706	0.453	0.405	0.399	0.183
NCI-H2347	0.698	0.694	0.692	0.834	0.807	0.596	0.579	0.541	0.662	0.56	0.55	0.541	0.544	0.519	0.683	0.46	0.642	0.447	0.439	0.335
NCI-H1437	1.12	1.18	0.891	1.08	1.11	0.894	0.751	0.616	0.609	0.39	0.661	0.635	0.673	0.625	0.541	0.834	0.765	0.752	0.829	0.776
NCI-H522	0.798	0.871	0.878	1.11	0.863	0.799	0.871	0.766	1	0.999	0.603	0.755	0.665	0.588	0.772	0.924	0.891	0.95	0.82	0.695
NCI-H1648	0.727	0.741	0.747	0.865	0.544	0.506	0.666	0.517	0.505	0.577	0.812	0.413	0.727	0.77	1.09	0.544	0.372	0.333	0.375	0.323
LXF-289	1.14	1.08	0.899	1	0.93	0.772	0.828	0.724	0.719	0.637	1.03	1.1	0.823	0.95	0.963	0.817	0.755	0.701	0.71	0.473

Cell Line	relative viability ([1]; first compound 0.08 µM)	relative viability ([1]; first compound 0.253 µM)	relative viability ([1]; first compound 0.8 µM)	relative viability ([1]; first compound 2.53 µM)	relative viability ([1]; first compound 8 µM)	relative viability ([2]; first compound 0.08 µM)	relative viability ([2]; first compound 0.253 µM)	relative viability ([2]; first compound 0.8 µM)	relative viability ([2]; first compound 2.53 µM)	relative viability ([2]; first compound 8 µM)	relative viability ([3]; first compound 0.08 µM)	relative viability ([3]; first compound 0.253 µM)	relative viability ([3]; first compound 0.8 µM)	relative viability ([3]; first compound 2.53 µM)	relative viability ([3]; first compound 8 µM)	relative viability ([4]; first compound 0.08 µM)	relative viability ([4]; first compound 0.253 µM)	relative viability ([4]; first compound 0.8 µM)	relative viability ([4]; first compound 2.53 µM)	relative viability ([4]; first compound 8 µM)
LU99A	0.326	0.348	0.398	0.362	0.239	0.432	0.438	0.51	0.515	0.464	0.253	0.311	0.27	0.258	0.253	0.511	0.473	0.496	0.52	0.33
NCI-H358	0.542	0.474	0.529	0.6	0.681	0.64	0.602	0.782	0.65	0.49	0.635	0.62	0.566	0.633	0.618	0.762	0.424	0.386	0.336	0.262
NCI-H1666	0.959	0.806	0.682	0.727	0.63	1.04	1.09	0.924	0.713	0.73	0.78	0.75	0.697	0.693	0.516	1.07	0.953	0.995	0.764	0.916
LOU-NH91	0.764	0.707	0.751	0.719	0.818	0.896	0.858	0.871	0.936	0.916	0.893	0.9	0.876	0.937	0.998	1	0.911	0.904	0.794	0.675
RERF-LC-KJ	1.06	0.836	0.728	0.879	0.945	0.643	0.628	0.523	0.664	0.566	0.988	0.975	0.885	0.822	0.593	0.779	0.735	0.741	0.677	0.656
NCI-H2085	1.01	1.06	0.791	1	0.991	0.743	0.72	0.699	0.912	0.806	0.741	0.846	0.773	0.785	0.976	0.845	0.788	0.891	0.826	0.736
NCI-H1793	0.449	0.519	0.514	0.407	0.418	0.734	0.528	0.808	0.88	0.702	0.979	0.837	0.827	0.847	1.06	0.969	0.632	0.835	0.602	0.484
HCC-366	0.28	0.259		0.271	0.192	0.353	0.283		0.152	0.161	0.41	0.467		0.452	0.212	0.404	0.39	0.399	0.255	0.396
NCI-H596	1.07	0.94	1.22	1.03	1.27	0.52	0.51	0.501	0.623	0.593	0.724	0.563	0.634	0.606	0.61	0.559	0.594	0.69	0.686	0.682
NCI-H2126	1.01	0.999	0.846	1.01	0.933	0.801	0.777	0.717	0.732	0.661	0.874	0.95	0.8	0.799	0.634	0.862	0.786	0.642	0.729	0.703
EMC-BAC-2	1.1	0.99	0.957	0.989	0.856	0.492	0.434	0.385	0.334	0.325	0.461	0.492	0.464	0.492	0.44	0.878	0.57	0.642	0.562	0.449
H3255	0.931	0.946	0.634	1.01	0.902	0.763	0.947		0.758	0.861	0.548	0.588	0.456	0.567	0.534	0.838	0.781	0.846	0.87	0.824
NCI-H838	1	0.87	0.844	0.905	1.03	0.735	0.642	0.666	0.774	0.755	0.873	0.743	0.582	0.718	0.709	0.753	0.72	0.677	0.722	0.718
HCC-15	1.27	1.26	0.877	1.22	0.461	0.861	0.944	0.651	0.84	0.648	0.668	0.79	0.61	0.735	0.634	0.867	0.728	0.693	0.61	0.348
NCI-H1395	0.389	0.382	0.4	0.432	0.404	0.649	0.752	0.772	0.814	0.823	0.464	0.463	0.446	0.468	0.472	0.936	0.61	0.665	0.62	0.607
CAL-12T	0.736	0.572	0.546	0.596	0.551	0.867	0.915	0.713	0.983	0.704	0.722	0.693	0.67	0.727	0.603	0.802	0.634	0.643	0.522	0.417
